Experimental data reported in US9365572B2, “PI3K and/or mTOR inhibitor” (XUANZHU PHARMA CO., LTD., priority 2012, dated 2016).

Key:
[1] = test system: Calcium Channel L-Type, Dihydropyridine; experiment: Radioligand binding assay No. 214600; details: test substance 10 μM; rat
[2] = In vivo pharmacokinetics assay in rat; details: male, SD, plasma, rats; for Vd: read-out: Vss; for bioavailability: P.O 4 mg/kg vs I.V 2 mg/kg, read-out: F % (absolute bioavailability)
Description: Test animals: male SD rats, weighing 190-260 g. Intravenous bolus injection (I.V.) and gavage (P.O.) administrations were each applied to three rats.
Compound 5, for both I.V and P.O administrations, was solubilized with a solution of 30% DMF+50% PEG400+20%(0.9% sodium chloride injection)(the pH being adjusted with a suitable amount of an aqueous hydrochloric acid solution (2 mol/L)).
Compound 6, for both I.V and P.O administrations, was solubilized with a solution of 30% DMF+30% PEG400+5%0.1 mol/lhydrochloric acid+[…] normal saline.
Compound 30 for I.V administration was solubilized with a solution of 30% DMF+50% PEG400+20% normal saline; Compound 30 for P.O administration was solubilized with a solution of 5% DMSO+30% polyoxyethylene castor oil+65% normal saline.
Compound 30 hydrochloride for I.V administration was solubilized with a solution of 30% DMF+50% PEG400+20% sterile water for injection.
I.V blood sampling time point: 0.083 h, 0.25 h, 0.5 h, 1 h, 2 h, 4 h, 6 h, 8 h and 24 h after the administration, P.O blood sampling time point: 0.17 h, 0.5 h, 1 h, 2 h, 4 h, 6 h, 8 h and 24 h after the administration.
About 100 μl of whole blood was taken at each time point, anticoagulated with heparin sodium, and centrifugated at 8,000 rpm in a high-speed centrifuge for 6 minutes to separate plasma, and the resulting plasma was frozen at −80° C. in a refrigerator.
The plasma sample was treated with a liquid-liquid extraction. 20 μL of plasma was taken. A solution of BEZ-235 (Novartis, Phase II) in tertbutylmethylether (600 μL, 10 ng/mL) was added as internal standard. The mixture was rotated vertically at 1500 rpm for 10 mins and then centrifugated at 12000 rpm for 5 mins. 400 μL of the supernate was taken and dried under nitrogen. The dried substance was redissolved in 200 μL methanol:water (7:3, V/V) for LC-MS/MS analysis.
Calculation Absolute bioavailability F%=[AUC]last (P.O)*Dose(I.V)/[AUC]last (I.V)*Dose(P.O)

[3] = test system: Glutamate, NMDA, Phencyclidine; experiment: Radioligand binding assay No. 233000; details: test substance 10 μM; rat
Opiate κ(OP2, KOP) = Opiate κ(OP2, KOP) (Homo sapiens (Human), UniProt P41145); experiment: Radioligand binding assay No. 260210; details: test substance 10 μM, read-out: Inhibitory rate (%), Opiate κ(OP2, KOP)
Sequence of Opiate κ(OP2, KOP) (P41145 whole entry): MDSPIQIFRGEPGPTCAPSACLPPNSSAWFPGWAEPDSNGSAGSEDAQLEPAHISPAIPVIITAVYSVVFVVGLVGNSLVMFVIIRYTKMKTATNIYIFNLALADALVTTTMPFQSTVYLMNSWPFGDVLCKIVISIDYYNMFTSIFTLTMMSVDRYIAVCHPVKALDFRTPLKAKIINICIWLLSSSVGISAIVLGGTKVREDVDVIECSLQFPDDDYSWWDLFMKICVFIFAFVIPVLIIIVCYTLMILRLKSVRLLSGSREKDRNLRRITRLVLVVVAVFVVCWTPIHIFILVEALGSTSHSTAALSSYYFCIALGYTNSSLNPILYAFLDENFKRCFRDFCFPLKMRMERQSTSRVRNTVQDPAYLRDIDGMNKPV

Histamine H3 = Histamine H3 (Homo sapiens (Human), UniProt Q9Y5N1); experiment: Radioligand binding assay No. 239820; details: test substance 10 μM, read-out: Inhibitory rate (%), Histamine H3
Sequence of Histamine H3 (Q9Y5N1 whole entry): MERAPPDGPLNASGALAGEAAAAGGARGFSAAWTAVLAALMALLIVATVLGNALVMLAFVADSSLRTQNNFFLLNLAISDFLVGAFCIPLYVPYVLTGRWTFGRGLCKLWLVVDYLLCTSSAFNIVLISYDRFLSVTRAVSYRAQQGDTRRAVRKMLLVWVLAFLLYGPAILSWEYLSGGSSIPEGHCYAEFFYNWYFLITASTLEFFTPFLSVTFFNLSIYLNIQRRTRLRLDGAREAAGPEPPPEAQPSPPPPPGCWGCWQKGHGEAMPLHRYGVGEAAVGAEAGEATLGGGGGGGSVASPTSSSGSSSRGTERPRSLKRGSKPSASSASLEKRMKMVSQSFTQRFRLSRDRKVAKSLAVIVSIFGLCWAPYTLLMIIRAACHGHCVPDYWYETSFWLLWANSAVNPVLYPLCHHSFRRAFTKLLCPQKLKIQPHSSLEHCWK

PI3Kα = PI3Kα (Homo sapiens (Human), UniProt P42336); experiment: PI3Kα enzymatic assay; type: biochemical; details: read-out: In vitro enzymatic activity (IC50) PI3Kα
Sequence of PI3Kα (P42336 whole entry): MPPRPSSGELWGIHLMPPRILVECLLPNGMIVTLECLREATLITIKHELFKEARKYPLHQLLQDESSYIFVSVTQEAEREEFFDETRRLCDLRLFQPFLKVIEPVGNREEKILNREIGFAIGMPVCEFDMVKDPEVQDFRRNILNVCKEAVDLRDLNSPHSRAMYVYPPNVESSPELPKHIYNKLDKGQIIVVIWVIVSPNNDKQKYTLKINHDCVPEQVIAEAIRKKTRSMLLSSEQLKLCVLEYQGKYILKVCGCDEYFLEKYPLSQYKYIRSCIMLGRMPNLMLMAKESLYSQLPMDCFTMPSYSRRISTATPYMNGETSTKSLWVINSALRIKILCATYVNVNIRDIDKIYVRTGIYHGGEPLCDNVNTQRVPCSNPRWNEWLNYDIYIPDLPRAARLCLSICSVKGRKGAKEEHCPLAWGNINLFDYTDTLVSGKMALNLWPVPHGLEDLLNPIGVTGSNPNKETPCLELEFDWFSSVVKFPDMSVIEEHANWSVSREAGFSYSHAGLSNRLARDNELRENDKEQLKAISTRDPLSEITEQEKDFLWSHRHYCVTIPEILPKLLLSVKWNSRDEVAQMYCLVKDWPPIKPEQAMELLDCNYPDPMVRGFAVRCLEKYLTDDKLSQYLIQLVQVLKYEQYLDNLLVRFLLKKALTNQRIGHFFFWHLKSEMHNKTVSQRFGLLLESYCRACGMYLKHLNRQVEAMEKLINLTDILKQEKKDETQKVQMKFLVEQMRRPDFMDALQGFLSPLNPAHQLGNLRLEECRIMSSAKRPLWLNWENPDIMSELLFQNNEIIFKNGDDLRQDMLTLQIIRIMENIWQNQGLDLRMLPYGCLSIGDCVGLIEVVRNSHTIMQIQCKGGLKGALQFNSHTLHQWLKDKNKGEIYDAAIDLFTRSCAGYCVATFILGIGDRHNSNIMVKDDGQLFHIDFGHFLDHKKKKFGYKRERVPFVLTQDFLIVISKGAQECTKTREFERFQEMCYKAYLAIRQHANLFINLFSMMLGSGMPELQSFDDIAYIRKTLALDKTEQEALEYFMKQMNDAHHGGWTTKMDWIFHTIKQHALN
Sequence of PI3Kα (P27986 whole entry partner): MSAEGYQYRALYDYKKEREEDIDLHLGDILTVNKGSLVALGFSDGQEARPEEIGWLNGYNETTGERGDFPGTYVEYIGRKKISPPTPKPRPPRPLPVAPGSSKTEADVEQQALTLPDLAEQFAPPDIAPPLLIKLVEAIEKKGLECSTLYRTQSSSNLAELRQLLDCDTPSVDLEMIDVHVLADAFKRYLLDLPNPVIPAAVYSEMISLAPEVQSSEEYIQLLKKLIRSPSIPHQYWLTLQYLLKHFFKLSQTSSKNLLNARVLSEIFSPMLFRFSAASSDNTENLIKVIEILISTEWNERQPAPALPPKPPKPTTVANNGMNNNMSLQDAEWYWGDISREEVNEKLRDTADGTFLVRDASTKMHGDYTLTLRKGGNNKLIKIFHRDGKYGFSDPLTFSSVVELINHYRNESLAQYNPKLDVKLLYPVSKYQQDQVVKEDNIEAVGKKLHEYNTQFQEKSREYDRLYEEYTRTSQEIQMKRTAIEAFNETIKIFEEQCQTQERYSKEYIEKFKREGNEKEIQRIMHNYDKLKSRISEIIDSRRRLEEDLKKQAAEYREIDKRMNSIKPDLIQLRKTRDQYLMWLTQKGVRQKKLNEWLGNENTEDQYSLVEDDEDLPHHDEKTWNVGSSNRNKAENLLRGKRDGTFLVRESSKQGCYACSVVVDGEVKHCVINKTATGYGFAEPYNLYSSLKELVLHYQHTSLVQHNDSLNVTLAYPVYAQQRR
Procedure: Assay 1-2: In Vitro Enzymatic Inhibitory Activity of the Present Compound
• 1.1 1-fold kinase buffer: 50 mM HEPES, pH 7.5, 10 mM MgCl2, 1 mM EGTA, 3 mM MnCl2, 0.01% Tween-20, 2 mM DTT; • 1.2 4-fold kinase solution: mTOR kinase was added to 1-fold kinase buffer to form 4-fold kinase solution with a final concentration of 2.5 nM; • 1.3 2-fold substrate and ATP solution: the substrate 4EBP1 and ATP were added to 1-fold kinase buffer to form 2-fold substrate solution with final concentration of 50 nM of 4EBP1 and 10.8 μM of ATP; • 1.4 4-fold test substance solutions: 100-fold test substance solutions in different gradient concentrations were formulated with 100% DMSO, and diluted by 25 folds with 1-fold kinase buffer to form 4-fold test substance solutions in different gradient concentrations. • 1.5 Preparation of detection solution: a detection solution containing 2-fold final concentrations of EDTA and 4EBP1 phosphorylated antibody was formulated, wherein the final concentration for EDTA was 8 mM, and the final concentration for the 4EBP phosphorylated antibody was 2 nM. 2. Procedure • 2.1 To each well of a 384-well plate was added 2.5 μL of the 4-fold test substance solutions in gradient concentrations. The replication was made. • 2.2 To each well was added 2.5 μL of 4-fold kinase solution, and then the plate was incubated for 10 mins; • 2.3 Then to each well was added 5 μL/of 2-fold substrate and ATP solution, and then the plate was incubated at room temperature for 1 hour; • 2.4 Finally, 10 μL of the detection solution was added to terminate the reaction. After 60 mins, the data Lance signal ([…]) was read from Envision. 3 Data treatment Inhibition rate (%)=[…] • wherein: • maximum refers to the reading at the DMSO control well. • minimum refers to the reading at the control well without kinase, • The data was input into Graphpad Prism 5.0 to plot and obtain the curve and IC50 value. PI3Kα Enzymatic Assay 1. […] After 15 mins, the data Lance signal ([…]) was read from Envision. 3 Data treatment Inhibition rate (%)=100−(sample value−minimum)/(maximum−minimum)×100 • wherein: • maximum refers to the reading at the control well without kinase, • minimum refers to the reading at the DMSO control well, • The data was input into Graphpad Prism 5.0 to plot and obtain the curve and IC50 value. […]

## Nc1ccc(-c2ccc3ncc4c(=O)[nH]c(=O)n(-c5cccc(C(F)(F)F)c5)c4c3n2)cn1 [Compound 5, 9-(6-aminopyridin-3-yl)-1-(3-(trifluoromethyl)phenyl)pyrimido[5,4-c][1,5]naphthyridine-2,4(1H,3H)-dione]
[1]
  Inhibitory rate (%), Calcium Channel L-Type, Dihydropyridine: 56%
[2]; iv, I.V, 2 mg/kg
  AUC(0-inf): 9360 ng·h/mL
  AUC(0-t): 9130 ng·h/mL
  clearance: 3.5 mL/min/kg
  half-life: 4.72 h
  Vd: 1.26 L/kg
[2]; po
  bioavailability: 14%
[2]; po, P.O, 4 mg/kg
  AUC(0-inf): 2590 ng·h/mL
  AUC(0-t): 2550 ng·h/mL
  Cmax: 205 ng/mL
  Tmax: 6 h
  half-life: 5.77 h
[3]
  Inhibitory rate (%), Glutamate, NMDA, Phencyclidine: 8%
Opiate κ(OP2, KOP)
  inhibition at 10 µM: 10%
Histamine H3
  inhibition at 10 µM: 16%

## O=c1[nH]c(=O)n(-c2cccc(C(F)(F)F)c2)c2c1cnc1ccc(-c3cnc4[nH]ccc4c3)nc12 [Compound 30, 9-(1H-pyrrolo[2,3-b]pyridin-5-yl)-1-(3-(trifluoromethyl)phenyl)pyrimido[5,4-c][1,5]naphthyridine-2,4(1H,3H)-dione]
[2]; iv, I.V, 2 mg/kg
  AUC(0-inf): 3070 ng·h/mL
  AUC(0-t): 3050 ng·h/mL
  clearance: 11 mL/min/kg
  half-life: 3.89 h
  Vd: 1.85 L/kg
[2]; po
  bioavailability: 12.8%
[2]; po, P.O, 4 mg/kg
  AUC(0-inf): 785 ng·h/mL
  AUC(0-t): 654 ng·h/mL
  Cmax: 54.8 ng/mL
  Tmax: 2 h
  half-life: 9.42 h
PI3Kα
  IC50: 15 nM
